Reference: patent US20220016183A1, “EXOSOME AND VARIOUS USES THEREOF” (PROSTEMICS CO., LTD., priority 2018, published 2022)

Tested on: Dermal papilla cells, DPC
Assay: Dermal papilla cell (DPC) proliferation, CCK-8
Assay type: cell-based
Settings: 10 μM, 24 hours
Description: After dispensing a serum medium with 10,000 cells/well of papillary cells (Dermal papilla cells, DPC) in a 96-well microplate, the cells were incubated overnight at 37° C. in a CO2 incubator. […] After removing the treated material from each cell and dispensing the CCK-8 solution thereto, the cells were incubated in the CO2 incubator at 37° C. for 2 hours, and absorbance was measured at 450 nm.

## Nc1cc(N2CCCCC2)nc(N)[n+]1[O-] [M1, Minoxidil]
  DPC proliferation rate (%): 118.97%
